# Experimental data as given in patent US10555950B2, “Bile acid recycling inhibitors for treatment of obesity and diabetes” (Satiogen Pharmaceuticals, Inc., priority 2008, dated 2020).
# Entries after “also recorded” stand apart in the source; their conditions may differ.
# Key:
# male db/db mice [1] = experiment: In vivo assay for reduction in blood glucose levels (Example 6, Compound 100A with or without sitagliptin); conditions: for reduction in plasma glucose from baseline: after 6 hours
# Procedure: FIG. 1 illustrates the change in plasma glucose level in diabetic db/db mice after oral administration of a combination of the ASBTI (−)-(3R,5R)-trans-3-butyl-3-ethyl-2,3,4,5-tetrahydro-7,8-dimethoxy-5-phenyl-1,4-benzothiazepine1,1-dioxide at doses of 0, 0.1, 1, 10 mg/kg and 30 mg/kg sitagliptin (DPP-IV inhibitor) and the ASBTI alone.
# FIG. 9 illustrates the change in body weight 24 h after administration of the ASBTI (−)-(3R,5R)-trans-3-butyl-3-ethyl-2,3,4,5-tetrahydro-7,8-dimethoxy-5-phenyl-1,4-benzothiazepine1,1-dioxide (100A) at doses of 0, 0.1, 1, 10 mg/kg in combination with 30 mg/kg sitagliptin (DPP-IV inhibitor) and the ASBTI alone.
# Male db/db mice 6-7 weeks (approx 30 g) were fasted for 2 h. A combination of (−)-(3R,5R)-trans-3-butyl-3-ethyl-2,3,4,5-tetrahydro-7,8-dimethoxy-5-phenyl-1,4-benzothiazepine 1,1-dioxide (Compound 100A) at doses of 0, 0.1, 1, 10, mg/kg in 10% of DMSO-water and 30 mg/kg sitagliptin (DPP-IV inhibitor) in a mixture of valine-pyrrolidine in water was administered orally to male db/db mice (n=7-10 per group). Blood sample (˜1 μl from tail for glucose level testing) was taken at t=−24 h, 0, 60, 180, 240, 300, 360 min and 24 h after administration.
# plasma GLP-1 level = experiment: Plasma GLP-1 levels in normal rats after oral ASBTI or metformin with DPP-IV inhibitor (Example 8); assay type: in vivo; conditions: for plasma GLP-1 level, ASBTI in combination with sitagliptin: oral 3, 30, 100 mg/kg + 30 mg/kg sitagliptin; for plasma GLP-1 level, ASBTI in combination with sitagliptin / plasma GLP-1 level, ASBTI alone: 0-5 h; for plasma GLP-1 level, ASBTI alone: oral 3, 30, 100 mg/kg
# Procedure: 12-week-old male HSD rats were fasted for 16 h and given oral dose of 0, 3, 30, 100 mg/kg of the ASBTI 1-[4-[4-[(4R,5R)-3,3-dibutyl-7-(dimethylamino)-2,3,4,5-tetrahydro-4-hydroxy-1,1-dioxido-1-benzothiepin-5-yl]phenoxy]butyl]4-aza-1-azoniabicyclo[2.2.2]octane methane sulfonate (Synthesized by Nanosyn Inc., CA, USA) or metformin (Control, 0, 3, 30, 100, 300 mg/kg) in saline and a dose of 30 mg/kg sitaglipin in a mixture of valine-pyrrolidine in water (n=5 per group). Blood samples in volume of 0.6 ml for each time point were taken from the caudal vein with a heparinized capillary tube 0, 1, 3 and 5 h after the administration of compounds and plasma GLP-1 level were determined. Aprotinin and 10 μl of DPP-IV inhibitor per ml of blood were used for blood sample preservation during 10 min centrifugation and for storage at −70° C. or below. GLP-1 (Active pM) was tested by Millipore ELISA Kits (Millipore Corporation, 290 Concord Road, Billerica, Mass.).
# diabetic db/db mice [2] = experiment: Plasma glucose in diabetic db/db mice after oral metformin plus sitagliptin (FIG. 3); assay type: in vivo; conditions: combination of metformin and sitagliptin
# Procedure: FIG. 3 illustrates the change in plasma glucose level in diabetic db/db mice after oral administration of a combination of metformin at doses of 0, 3, 30, 100, 300 mg/kg and 30 mg/kg sitagliptin (DPP-IV inhibitor).
# male db/db mice [3] = experiment: In vivo assay for reduction in blood glucose levels (Example 7, Compound 100B with or without sitagliptin); conditions: for reduction in plasma glucose from baseline: after 6 hours, oral
# Procedure: Male db/db mice 8-9 weeks (approx 40 g) were fasted for 2 h. A combination of 1-[4-[4-[(4R,5R)-3,3-dibutyl-7-(dimethylamino)-2,3,4,5-tetrahydro-4-hydroxy-1,1-dioxido-1-benzothiepin-5-yl]phenoxy]butyl]4-aza-1-azoniabicyclo[2.2.2]octane methane sulfonate (Compound 100B) at doses of 0, 3, 30, 100 mg/kg in saline-water and 30 mg/kg sitagliptin (DPP-IV inhibitor) in a mixture of valine-pyrrolidine in water was administered orally to male db/db mice (n=6-11 per group). Blood sample (˜1 μl from tail for glucose level testing) was taken at t=−24 h, 0, 1, 3, 4, 5, 6 h and 24 h after administration.
# diabetic db/db mice [4] = experiment: Oral Compound 100A/100B plus sitagliptin versus subcutaneous exenatide, blood glucose at 3 hours (Example 9); assay type: in vivo; conditions: FIG. 10
# [5] = FIG. 6, 7, listed as 1-[4-[4-[(4R,5R)-3,3-dibutyl-7-(dimethylamino)-2,3,4,5-tetrahydro-4-hydroxy-1,1-
structure (smiles),measurement,setting,value
CCCC[C@]1(CC)CS(=O)(=O)c2cc(OC)c(OC)cc2[C@@H](c2ccccc2)N1,change in body weight,"male db/db mice [1]; 24 h after administration, 0.1-10 mg/kg with 30 mg/kg sitagliptin and ASBTI alone, FIG. 9",Weight loss
same,"plasma glucose concentrations, ASBTI alone","male db/db mice [1]; ASBTI alone, oral, FIG. 1",lowers plasma glucose concentrations
same,reduction in plasma glucose from baseline,"male db/db mice [1]; 01 mg/kg (so in the source) + 30 mg/kg sitagliptin, oral",5.6%
same,reduction in plasma glucose from baseline,"male db/db mice [1]; 1 mg/kg + 30 mg/kg sitagliptin, oral",15%
same,reduction in plasma glucose from baseline,"male db/db mice [1]; 10 mg/kg + 30 mg/kg sitagliptin, oral",42.3%
same,reduction of the elevated blood glucose levels,"male db/db mice [1]; single oral administration, 0.1-10 mg/kg in combination with 30 mg/kg sitagliptin, compared to sitagliptin alone or vehicle, FIG. 1",dose-dependent reduction of the elevated blood glucose levels
"CN(C)C(=N)N=C(N)N [metformin, reference compound]","plasma GLP-1 level, metformin in combination with sitagliptin","plasma GLP-1 level; oral metformin 30, 100, 300 mg/kg + 30 mg/kg sitagliptin, FIG. 5",dose-dependent increase in plasma GLP-1 level; also recorded: elevation in GLP-1 levels in plasma
same,duration of reduced plasma glucose concentrations,diabetic db/db mice [2],about 6 hours
"N[C@@H](CC(=O)N1CCn2c(nnc2C(F)(F)F)C1)Cc1cc(F)c(F)cc1F [sitagliptin, (3R)-3-amino-1-[9-(trifluoromethyl)-1,4,7,8-tetrazabicyclo[4.3.0]nona-6,8-dien-4-yl]-4-(2,4,5-trifluorophenyl)butan-1-one, reference compound]",reduction in plasma glucose from baseline,"male db/db mice [1]; 0 mg/kg ASBTI + 30 mg/kg sitagliptin, oral",5.5%
same,reduction in plasma glucose from baseline,male db/db mice [3]; 0 mg/kg ASBTI + 30 mg/kg sitagliptin,5.5%
"CCCCC1(CCCC)CS(=O)(=O)c2ccc(N(C)C)cc2[C@@H](c2ccc(OCCCC[N+]34CCN(CC3)CC4)cc2)[C@H]1O.CS(=O)(=O)[O-] [Compound 100B, 1-[4-[4-[(4R,5R)-3,3-dibutyl-7-(dimethylamino)-2,3,4,5-tetrahydro-4-hydroxy-1,1-dioxido-1-benzothiepin-5-yl]phenoxy]butyl]4-aza-1-azoniabicyclo[2.2.2]octane methane sulfonate salt]","plasma GLP-1 level, ASBTI in combination with sitagliptin","plasma GLP-1 level; FIG. 6, 7",dose-dependent increase in plasma GLP-1 level
same,"plasma GLP-1 level, ASBTI in combination with sitagliptin",plasma GLP-1 level; [5],dose-dependent increase in plasma GLP-1 level; also recorded: elevation in GLP-1 levels in a dose-dependent manner
same,"plasma GLP-1 level, ASBTI alone","plasma GLP-1 level; FIG. 6, 7",dose-dependent increase in plasma GLP-1 level
same,"plasma GLP-1 level, ASBTI alone",plasma GLP-1 level; [5],dose-dependent increase in plasma GLP-1 level; also recorded: elevation in GLP-1 levels in a dose-dependent manner
same,blood glucose lowering compared with exenatide,"diabetic db/db mice [4]; 3 hours after dosing, oral + 30 mg/kg sitagliptin versus single subcutaneous 0.02 mg/kg exenatide",reduces blood glucose levels more than a single subcutaneous injection of 0.02 mg/kg exenatide
same,change in body weight,"male db/db mice [3]; 24 h after administration, 3-100 mg/kg with 30 mg/kg sitagliptin, FIG. 8",Weight loss
same,"plasma glucose levels, ASBTI alone","male db/db mice [3]; ASBTI alone, 3, 30, 100 mg/kg oral, FIG. 4",lowers plasma glucose levels in dose dependent manner
same,reduction in plasma glucose from baseline,male db/db mice [3]; 3 mg/kg + 30 mg/kg sitagliptin,5.6%
same,reduction in plasma glucose from baseline,male db/db mice [3]; 30 mg/kg + 30 mg/kg sitagliptin,15%
same,reduction in plasma glucose from baseline,male db/db mice [3]; 100 mg/kg + 30 mg/kg sitagliptin,42.3%
same,reduction of the elevated blood glucose levels,"male db/db mice [3]; single oral administration, 3-100 mg/kg in combination with 30 mg/kg sitagliptin, compared to sitagliptin alone or vehicle, FIG. 2",dose-dependent reduction of the elevated blood glucose levels
"CCCC[C@]1(CC)CS(=O)(=O)c2cc(OC)c(OC)cc2[C@@H](c2ccccc2)N1 (relative stereo) [Compound 100A, (−)-(3R,5R)-trans-3-butyl-3-ethyl-2,3,4,5-tetrahydro-7,8-dimethoxy-5-phenyl-1,4-benzothiazepine1,1-dioxide]",reduction of plasma glucose levels,"diabetic db/db mice [4]; 3 hours post-dose, oral 10 mg/kg + 30 mg/kg sitagliptin",35%
